In patent US12479816B2, “20-HETE formation inhibitors” (UNIVERSITY OF PITTSBURGH—OF THE COMMONWEALTH SYSTEM OF …, priority 2019, dated 2025):
Where two headings read alike, the source gives them in different places.

What was measured:
[1] = system: 20-HETE formation (CYP4) in HLM; experiment: Inhibition of 20-HETE formation at 250 or 500 nM in HLM microsomal incubations; format: biochemical, human; details: 500 nM compound; HLM 300 μg/ml, AA 100 μM, 20 min
Outline: (§1)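 Liver or kidney microsomes (300 μg/ml) or rCYP4F2 (25 pmol/mL) were incubated with 100 μM arachidonic acid, 1 mM NADPH and compound at 250 or 500 nM in 0.12 M potassium phosphate/5 mM MgCl2 for 20 min at 37 °C. 20-HETE was measured by UPLC-MS/MS against 20-HETE-d6 and expressed as % of vehicle (n=3).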

[2] = system: 20-HETE formation (CYP4) in HLM; experiment: IC50 determination, 20-HETE formation in HLM; format: biochemical, human; details: HLM 300 μg/ml, AA 100 μM, 12 concentrations
Procedure: Microsomal incubations contained HLM, RLM (300 μg/ml), AA (100 μM), NADPH (1 mM) and test compounds at 12 concentrations (0.1 nM-50 μM) in a 1 ml total volume in microsomal incubation buffer (0.12 M potassium phosphate buffer containing 5 mM magnesium chloride). Reaction was started by adding NADPH to the incubates and was carried out at 37° C. in a shaking water bath for 20 min. Reaction was stopped by placing tubes on ice, followed by adding 12.5 μl 20-HETE-d6 as internal standard to each sample. Microsomal incubations were extracted with 3 ml ethyl ether twice, dried down under nitrogen gas and reconstituted in 125 μl 80:20 methanol:deionized H2O for analysis. 20-HETE formation was quantified using the validated UPLC-MS/MS assay described above and normalized by vehicle group. HET0016 (250 nM) was used as positive control. Incubates without NADPH group served as the negative control. IC50 was determined by fitting the dose-response curve using Graphpad Prism nonlinear regression.

[3] = biological target: T1, rCYP4F2 (Homo sapiens, UniProt P78329); experiment: Inhibition of 20-HETE formation at 250 or 500 nM in rCYP4F2 incubations; format: biochemical; details: 500 nM compound; rCYP4F2 25 pmol/mL; read-out: rCYP4F2 % inh. @ 500 nM
T1 sequence (P78329 5-520): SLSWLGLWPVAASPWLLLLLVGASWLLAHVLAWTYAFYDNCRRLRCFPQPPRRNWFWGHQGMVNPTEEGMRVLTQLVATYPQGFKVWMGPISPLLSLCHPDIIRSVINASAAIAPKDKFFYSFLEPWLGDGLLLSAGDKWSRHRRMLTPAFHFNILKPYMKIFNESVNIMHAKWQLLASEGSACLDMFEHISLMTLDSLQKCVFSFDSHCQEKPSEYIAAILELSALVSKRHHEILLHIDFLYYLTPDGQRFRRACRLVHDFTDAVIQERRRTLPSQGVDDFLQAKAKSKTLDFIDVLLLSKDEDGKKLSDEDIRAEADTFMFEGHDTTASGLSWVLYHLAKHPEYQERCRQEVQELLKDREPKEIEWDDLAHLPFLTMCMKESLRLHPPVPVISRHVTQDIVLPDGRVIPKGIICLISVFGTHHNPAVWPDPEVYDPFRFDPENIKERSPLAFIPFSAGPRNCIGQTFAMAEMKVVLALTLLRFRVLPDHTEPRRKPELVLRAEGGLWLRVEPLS
Outline: as §1

[4] = HLM stability determination; format: in vitro ADME, human; details: HLM 500 μg/ml, 1 μM compound, NADPH, relative to 0 min
Procedure: HLM stability determinations shown in Table 3 were obtained as follows. Microsomal incubates contained HLM (500 μg/ml), test compounds (1 μM) and NADPH (1.3 mM) in a 1 ml total volume of microsomal incubation buffer (0.12 M potassium phosphate buffer containing 5 mM magnesium chloride). Reaction was started by adding NADPH to the incubates and was carried out at 37° C. in a shaking water bath for 60 min. At 0, 15, 30, 45, 60 min, a 50 μl aliquot of incubates was taken out and reaction was stopped by adding aliquot into 200 μl ice-cold acetonitrile. After centrifugation at 14000×g for 5 min, 200 μl supernatant was taken out for UPLC-MS/MS analysis as described above. Values at 0 min were used as corresponding control for test compounds. Varapamil, metoprolol, and warfarin, categorized as fast, moderate and slow metabolism, were used as positive control. Incubates without NADPH group served as negative control.

[5] = system: 20-HETE formation (CYP4) in RLM; experiment: Inhibition of 20-HETE formation at 250 or 500 nM in RLM microsomal incubations; format: biochemical, rat; details: 500 nM compound; RLM 300 μg/ml
Outline: as §1

[6] = Turbidometric solubility determination; format: physicochemical; details: PBS with 1% DMSO, aqueous buffer, kinetic from dmso stock, room temperature
Outline: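 Kinetic turbidimetric solubility: DMSO stocks diluted 1:100 into PBS in triplicate to give 0–600 μM in 1% DMSO. Shaken 2 h at room temperature, then OD620 read. Solubility limit taken as the concentration giving a statistically significant absorbance rise above background.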

[7] = system: MDR1 (P-gp); experiment: BBB penetration potential, MDR1-MDCK permeability; format: in vitro ADME; details: dog; for Papp A→B at 120 min, 5 μM: apical to basolateral, pH 7.4, read-out: BBB penetration potential MDCK A-B 10−6 cm/s; for Papp B→A at 120 min, 5 μM: basolateral to apical, pH 7.4, read-out: BBB penetration potential MDCK B-A 10−6 cm/s
Procedure: BBB penetration potential assessment data in Table 1 was obtained as follows. MDR1-MDCK cell monolayers were grown to confluence on collagen-coated, microporous membranes in 12-well assay plates. Atenolol, propranolol and digoxin were used as control to assess plate quality. The permeability assay buffer was Hanks' balanced salt solution containing 10 mM HEPES and 15 mM glucose at a pH of 7.4. The buffer in the receiver chamber also contained 1% bovine serum albumin. The dosing solution concentration was 5 μM of test article in the assay buffer. Cell monolayers were dosed on the apical side (A-to-B) or basolateral side (B-to-A) and incubated at 37° C. with 5% CO2 in a humidified incubator. Samples were taken from the donor and receiver chambers at 120 minutes. Each determination was performed in duplicate the flux of lucifer yellow was also measured post-experimentally for each monolayer to ensure no damage was inflicted to the cell monolayers during the flux period. All samples were assayed by LC-MS/MS using electrospray ionization using a PE SCIEX API 4000 spectrometer and total run time of 1 min. Analytical method/conditions were: Liquid Chromatography Column: Waters ACQUITY UPLC BEH Phenyl 30×2.1 mm, 1.7 m; M.P. Buffer: 25 mM ammonium formate buffer, pH 3.5; Aqueous Reservoir (A): 90% water, 10% buffer; Organic Reservoir (B): 90% acetonitrile, 10% buffer; Flow Rate: 0.7 mL/minute; gradient program: 99% A (t=0 min), 1% A (t=0.65 min), 1% A (t=0.75 min), 99% A (t=0.8 min), 99% A (t=1 min); 5 μL injection volume
The apparent permeability (Papp) and percent recovery were calculated as follows: Papp=(dCr/dt)×Vr/(A×CA) (1) Percent Recovery=100×((Vr×Cr^final)+(Vd×Cd^final))/(Vd×CN) (2)
wherein: • dCr/dt is the slope of the cumulative concentration in the receiver compartment versus time in μMs^−1; • Vr is the volume of the receiver compartment in cm^3; • Vd is the volume of the donor compartment in cm^3; • A is the area of the insert (1.13 cm^2 for 12-well); • CA is the average of the nominal dosing concentration and the measured 120 minute donor concentration in μM; • CN is the nominal concentration of the dosing solution in μM; • Cr^final is the cumulative receiver concentration in μM at the end of the incubation period; • Cd^final is the concentration of the donor in μM at the end of the incubation period. Efflux ratio (ER) is defined as Papp (B-to-A)/Papp (A-to-B) Interpretation Brain Penetration Potential Classification: • Papp (A-to-B)≥3.0 and ER<3.0: High • Papp (A-to-B)≥3.0 and 10>ER≥3.0: Moderate • Papp (A-to-B)≥3.0 and ER≥10, or Papp (A-to-B)<3.0 Low

Compound | HLM % inh. @ 500 nM [1] | IC50 [2] | inhibition at 0.5 µM [3] | Stability HLM % @ 30 min [4] | RLM % inh. @ 500 nM [5] | solubility at 2 h ([6]; OD620, read-out: Max Solub) | solubility at 2 h ([6]; read-out: Solubility_ug/mL) | Papp A→B at 120 min, 5 μM [7] | Papp B→A at 120 min, 5 μM [7]
c1ccc(OC2CCN(c3cn[nH]c3)CC2)cc1 [Compound 14, 4-Phenoxy-1-(1H-pyrazol-4-yl)piperidine] | 53.00% | 0.22 µM | 60% | 97% | 0.00% | – | – | – | –
c1ccc(SC2CCN(c3cn[nH]c3)CC2)cc1 [Compound 40, 4-(Phenylthio)-1-(1H-pyrazol-4-yl)piperidine] | 65.80% | 0.1 µM | 75.9% | 82% | 7.80% | 95.5 µM | 24.8 µg/mL | – | –
CC(=O)N(C)c1ccc(C2CCN(c3cn[nH]c3)CC2)c(F)c1 [Compound 69, N-(4-(1-(1H-Pyrazol-4-yl)piperidin-4-yl)-3-fluorophenyl)-N-methylacetamide] | 85.6% | – | 57.9% | – | 27.70% | 304 µM | – | 22.3 ×10⁻⁶ cm/s | 44.4 ×10⁻⁶ cm/s
CC(Nc1ccc(C2CCN(c3cn[nH]c3)CC2)cc1)C(F)(F)F (centres unmarked) [Compound 104, 4-(1-(1H-Pyrazol-4-yl)piperidin-4-yl)-N-(1,1,1-trifluoropropan-2-yl)aniline] | 86.1% | – | 78% | – | 36.00% | 31 µM | – | 50.4 ×10⁻⁶ cm/s | 48.9 ×10⁻⁶ cm/s
O=C1CCCN1Cc1ccc(C2CCN(c3cn[nH]c3)CC2)cc1F [Compound 109, 1-(4-(1-(1H-Pyrazol-4-yl)piperidin-4-yl)-2-fluorobenzyl)pyrrolidin-2-one] | 90.30% | – | 86% | – | 62.70% | > 600 µM | – | 10.8 ×10⁻⁶ cm/s | 77.5 ×10⁻⁶ cm/s
Cc1ccc(CC2CCN(c3cn[nH]c3)CC2)cc1 [Compound 116, 4-(4-Methylbenzyl)-1-(1H-pyrazol-4-yl)piperidine] | 86.40% | – | 89.3% | – | 59.60% | 71 µM | – | 77.4 ×10⁻⁶ cm/s | 70.3 ×10⁻⁶ cm/s

Second part, the compound after the results:

HLM % inh. @ 500 nM [1] | IC50 [2] | inhibition at 0.5 µM [3] | Stability HLM % @ 30 min [4] | RLM % inh. @ 500 nM [5] | solubility at 2 h ([6]; OD620, read-out: Max Solub) | solubility at 2 h ([6]; read-out: Solubility_ug/mL) | Papp A→B at 120 min, 5 μM [7] | Papp B→A at 120 min, 5 μM [7] | Compound
67.40% | 0.11 µM | 70.8% | 61% | 0.00% | 166 µM | 40.1 µg/mL | – | – | Cc1ccc(C2CCN(c3ccn[nH]3)CC2)cc1 [Compound 23, 1-(1H-Pyrazol-5-yl)-4-(p-tolyl)piperidine]
73.80% | 0.08 µM | 79.9% | 92% | 16.30% | 85.4 µM | 20.6 µg/mL | – | – | Cc1ccc(C2CCN(c3cn[nH]c3)CC2)cc1 [Compound 24, 1-(1H-Pyrazol-4-yl)-4-(p-tolyl)piperidine]
56.40% | 0.28 µM | 67.8% | 100% | 21.30% | 235 µM | 63.9 µg/mL | – | – | COCc1ccc(C2CCN(c3ccn[nH]3)CC2)cc1 [Compound 25, 4-(4-(Methoxymethyl)phenyl)-1-(1H-pyrazol-5-yl)piperidine]
71.70% | 0.2 µM | 81.7% | 100% | 27.80% | 366 µM | 99.4 µg/mL | – | – | COCc1ccc(C2CCN(c3cn[nH]c3)CC2)cc1 [Compound 26, 4-(4-(Methoxymethyl)phenyl)-1-(1H-pyrazol-4-yl)piperidine]
3.70% | – | 38.4% | 100% | 0.00% | – | – | – | – | COc1cncc(C2CCN(c3ccn[nH]3)CC2)c1 [Compound 60, 3-(1-(1H-Pyrazol-5-yl)piperidin-4-yl)-5-methoxypyridine]
88% | – | 72% | – | 49.00% | 19.5 µM | – | 46.4 ×10⁻⁶ cm/s | 34.8 ×10⁻⁶ cm/s | COc1ccc(C2CCN(c3cn[nH]c3)CC2)cc1Cl [Compound 64, 4-(3-Chloro-4-methoxyphenyl)-1-(1H-pyrazol-4-yl)piperidine]
79.00% | – | 80% | – | 48.70% | 158 µM | – | 33.8 ×10⁻⁶ cm/s | 46.7 ×10⁻⁶ cm/s | O=C1CCCN1c1ccc(C2CCN(c3ccn[nH]3)CC2)cc1 [Compound 101, 1-(4-(1-(1H-Pyrazol-5-yl)piperidin-4-yl)phenyl)pyrrolidin-2-one]
